In publication PMC4199632, “Exploring the Anti-Cancer Activity of Novel Thiosemicarbazones Generated through the Combination of Retro-Fragments: Dissection of Critical Structure-Activity Relationships” (PLoS ONE, 2014):

What was measured:
[1] = test system: HeLa cervical carcinoma cells; experiment: Proliferation assay (crystal violet, 72 h); format: cell-based; details: Homo sapiens, 72 h incubation, mean ±SD (3 experiments)
Experimental: (§1) The human cancer cell types (neuroepithelioma (SK-N-MC), colon cancer (HCT116 with wild-type p53 (p53^+/+)), Burkitt's lymphoma (Raji) and cervical carcinoma (HeLa)) cells and normal human dermal fibroblasts (NHDF) were obtained from the American Type Culture Collection (ATCC, Manassas, VA, USA). HCT116 null p53 (p53^−/−) cells were obtained from the Maria Sklodowska-Curie Memorial Cancer Center and Institute of Oncology, Poland.
(§2) The SK-N-MC cells were cultured in minimum essential medium (MEM; Life Technologies, Grand Island, New York, USA) containing 10% (v/v) fetal bovine serum (FBS; Life Technologies), 1 mM sodium pyruvate (Life Technologies), 1% (v/v) non-essential amino acids (Life Technologies), 2 mM L-glutamine (Life Technologies), 100 U/mL penicillin (Life Technologies), 100 µg/mL streptomycin (Life Technologies) and 0.28 µg/mL fungizone (Bristol Myers Squibb Pharmaceuticals, Montreal, Canada). The HCT116 and NHDF cells were grown in Dulbecco's modified Eagle's medium (DMEM; Sigma-Aldrich) supplemented with 12% (v/v) heat-inactivated FBS (HCT116; Life Technologies) or 15% (v/v) FBS (NHDF; Life Technologies), 100 µg/mL of gentamicin (Polfa Warszawa S.A., Warsaw, Poland), 100 µg/mL of streptomycin (Polfa) and 100 U/mL of penicillin (Polfa). The Raji and HeLa cells were cultured in Roswell Park Memorial Institute medium (RPMI-1640; Sigma-Aldrich) with the addition of 10% (v/v) heat-inactivated FBS (Life Technologies) and the supplements described for SK-N-MC cells above. All cell lines were cultured under standard conditions at 37°C in a humidified atmosphere at 5% CO2 and were subcultured every 3–4 days as required.
(§3) The cells were seeded in 96-well plates (SK-N-MC: 1.5×10^4 cells/well; HeLa: 5.0×10^3 cells/well; Raji: 3.0×10^3 cells/well; HCT116: 3.5×10^3 cells/well; NHDF: 3.0×10^3 cells/well) 24 h prior to the addition of the novel compounds. The assays were performed using a 72 h (SK-N-MC, Raji, HeLa) or 96 h (HCT 116, NHDF) incubation period with the agents at 37°C. […] Additionally, DFO and Dp44mT were included as positive controls in all experiments as their activity is well characterized, [42], [50].
(§4) Chelator stock solutions were prepared in DMSO and diluted in media so that the final [DMSO] <0.05%. The results were expressed as a percentage of the control and the resulting IC50 values were calculated using GraphPad Prism 5 (GraphPad Software, Inc., La Jolla, CA, USA). The IC50 was defined as the concentration necessary to reduce the absorbance to 50% of the untreated control. Each individual compound was tested in triplicate in a single experiment, with each experiment being repeated three times. After incubation of HCT 116 and NHDF cells with the tested compounds, 20 µL of the CellTiter 96 Aqueous One Solution - MTS (Promega, Madison, WI, USA) solution was added to each well (with 100 µL of DMEM without phenol red) and incubated for 1 h/37°C. The optical density of the samples was analyzed at 490 nm.
(§5) MTT (3-[4,5-dimethylthiazol-2-yl]-2,5-diphenyltetrazolium bromide) was used to evaluate the anti-proliferative effects of the chelators in SK-N-MC and Raji cells. Following incubation with the investigated compounds, 10 µL of MTT (5 mg/mL in PBS; Sigma-Aldrich) was added to each well. After a 2 h (SK-N-MC) or 4 h (Raji) incubation, the plates were centrifuged, and the cells were lysed with 100 µL of 10% SDS-50% isobutanol in 0.01 M HCl (SK-N-MC) or DMSO (Raji). The absorbance was measured at 570 nm. The anti-proliferative effects of these novel agents on HeLa cells were estimated using crystal violet staining (0.5% crystal violet solution for 10 min). Finally, the wells were rinsed with water and the cells were lysed with 2% SDS. The optical density of the samples was analyzed at 595 nm.

[2] = test system: HCT116 p53+/+, HCT116 p53−/−, Raji, HeLa, SK-N-MC and NHDF cells; experiment: Proliferation assay, ranges stated over several cell-types; format: cell-based, human
Experimental: as §1, §2, §3, §4, §5

[3] = test system: HCT116 p53−/− colon cancer cells; experiment: Proliferation assay (MTS, 96 h); format: cell-based, human; details: for IC50: Homo sapiens, HCT-116, 96 h, 96 h incubation, MTS, mean ±SD (3 experiments)
Experimental: as §1, §2, §3, §4

[4] = test system: HCT116 p53+/+ colon cancer cells; experiment: Proliferation assay (MTS, 96 h); format: cell-based, human; details: for IC50: Homo sapiens, HCT-116, 96 h incubation, MTS, mean ±SD (3 experiments)
Experimental: as §1, §2, §3, §4

[5] = test system: SK-N-MC neuroepithelioma cells; experiment: Proliferation assay (MTT, 72 h); format: cell-based; details: Homo sapiens, 72 h incubation, mean ±SD (3 experiments)
Experimental: as §1, §2, §3, §4, §5

[6] = test system: Raji Burkitt's lymphoma cells; experiment: Proliferation assay (MTT, 72 h); format: cell-based; details: Homo sapiens, 72 h incubation, mean ±SD (3 experiments)
Experimental: as §1, §2, §3, §4, §5

[7] = test system: normal human dermal fibroblast (NHDF) cells; experiment: Proliferation assay (MTS, 96 h), normal mortal cells; format: cell-based; details: Homo sapiens, NHDF, 96 h, 96 h incubation, mean ±SD (3 experiments)
Experimental: as §1, §2, §3, §4

[8] = Ascorbate oxidation assay (iron complexes); format: biochemical; details: iron complex; for Ascorbate oxidation (% of the control): FeIII 10 µM, ascorbate 100 µM
Experimental: The ability of the iron complexes of the novel ligands to mediate the oxidation of the physiological substrate, ascorbate, was examined using established methods, [18], [22], [52], [53]. Ascorbic acid (100 µM) was prepared immediately prior to each experiment and was incubated in the presence of Fe^III (10 µM; as FeCl3), the chelator (1–60 µM) and a 50-fold molar excess of citrate (500 µM). The absorbance at 265 nm was measured after 10 and 40 min and the difference in absorbance at these time points was calculated. The results of these experiments were expressed as iron-binding equivalents (IBE) due to the different denticity of the chelators examined. The chelators, Dp44mT, DFO and ethylenediaminetetraacetic acid (EDTA) were used as controls as the ability of their iron complexes to oxidize ascorbate has been extensively characterized, [15], [52], [53].
The ability of the iron complexes of the novel TSCs to catalyze the oxidation of the physiological substrate, ascorbate, was important to assess as redox cycling may play a critical role in their anti-proliferative activity, [15], [18], [52], [53]. Thus, the oxidation of ascorbate mediated by the iron complexes of series 1–6 were examined in comparison to the iron complexes of the control compounds, DFO, EDTA and Dp44mT, as the ability of the latter to oxidize ascorbate is well characterized, [15], [52], [53], [68]. The results were expressed as a percentage of the control (no chelator) at iron-binding equivalents (IBEs) of 0.1 (excess “free” iron), 1 (iron-chelator complexes with a fully filled coordination sphere), or 3 (excess free chelator), due to the different denticity of the chelators examined (Fig. 10).
Figure 10 Effect of the iron complexes of (A) series 1, (B) series 2, (C) series 3, (D) series 4, (E) series 5 and (F) series 6 chelators, relative to DFO, Dp44mT and EDTA, on ascorbate oxidation. Chelators at iron-binding equivalent (IBE) ratios of 0.1, 1, and 3 were incubated in the presence of Fe^III (10 µM) and ascorbate (100 µM). The UV-Vis absorbance at 265 nm was recorded after 10 and 40 min, and the difference between the time points was calculated. Results are mean ±SD (3 experiments).

Structure (SMILES) | IC50 [1] [µM] | IC50 ([2]; Homo sapiens, HCT-116, range over HCT116 p53+/+ and p53−/− cells and over the compounds named, read-out: IC50 range in HCT116 cells) [µM] | IC50 [3] [µM] | IC50 [4] [µM] | IC50 [5] [µM] | IC50 [6] [µM] | Therapeutic index, NHDF relative to HCT116 cells ([2]; range over HCT116 p53+/+ and p53−/− and over the compounds named) | Therapeutic index NHDF vs. HCT116 p53−/− ([3]; NHDF cell IC50 divided by HCT116 p53−/− IC50) | Therapeutic index NHDF vs. HCT116 p53+/+ ([4]; NHDF cell IC50 divided by HCT116 p53+/+ IC50) | IC50 [7] [µM] | Ascorbate oxidation compared with controls ([8]; IBE 3) | Ascorbate oxidation (% of the control) ([8]; IBE 0.1) [%] | Ascorbate oxidation (% of the control) ([8]; IBE 1) [%] | Ascorbate oxidation (% of the control) ([8]; IBE 3) [%]
Oc1cccc2ccc(/C=N/NC(=S)N3CCOCC3)nc12 [3c] | 0.18 ± 0.07 | 0.002 to 0.017 | 0.017 ± 0.006 | 0.004 ± 0.002 | > 6.25 | 0.02 ± 0.01 | 18–2650 | 624 | 2650 | – | – | – | – | –
S=C(N/N=C/c1ccc2ccccc2n1)N1CCOCC1 [2c] | 1.75 ± 0.33 | – | 1.56 ± 1.12 | 1.49 ± 0.02 | 1.4 ± 0.69 | 0.06 ± 0.01 | – | – | – | 3.27 ± 0.88 | – | – | – | –
O=C(O)CN(CCN(CC(=O)O)CC(=O)O)CC(=O)O [EDTA, ethylenediaminetetraacetic acid, reference compound] | – | – | – | – | – | – | – | – | – | – | – | 208 | 449 | 936
Oc1cccc2ccc(/C=N/NC(=S)N3CCN(c4ccccc4)CC3)nc12 [3b] | 8.45 ± 2.09 | – | 4.67 ± 2.04 | 4.18 ± 1.46 | > 6.25 | 0.19 ± 0.02 | – | – | – | 8.88 ± 1.07 | – | – | – | –

More lines, main results first:

IC50 [1] [µM] | IC50 ([2]; Homo sapiens, HCT-116, range over HCT116 p53+/+ and p53−/− cells and over the compounds named, read-out: IC50 range in HCT116 cells) [µM] | IC50 [3] [µM] | IC50 [4] [µM] | IC50 [5] [µM] | IC50 [6] [µM] | Structure (SMILES) | Therapeutic index, NHDF relative to HCT116 cells ([2]; range over HCT116 p53+/+ and p53−/− and over the compounds named) | Therapeutic index NHDF vs. HCT116 p53−/− ([3]; NHDF cell IC50 divided by HCT116 p53−/− IC50) | Therapeutic index NHDF vs. HCT116 p53+/+ ([4]; NHDF cell IC50 divided by HCT116 p53+/+ IC50) | IC50 [7] [µM] | Ascorbate oxidation compared with controls ([8]; IBE 3) | Ascorbate oxidation (% of the control) ([8]; IBE 0.1) [%] | Ascorbate oxidation (% of the control) ([8]; IBE 1) [%] | Ascorbate oxidation (% of the control) ([8]; IBE 3) [%]
1.12 ± 0.03 | – | 8.72 ± 1.64 | 6.15 ± 1.28 | – | 0.11 ± 0.02 | CCN1CCN(C(=S)N/N=C/c2cnc3ccccc3n2)CC1 [5a] | – | – | – | 2.73 ± 1.77 | – | – | – | –
2.73 ± 0.55 | – | 6.84 ± 5.48 | 9.15 ± 1.19 | 4.54 ± 1.6 | 1.55 ± 0.4 | Oc1ccc2cccnc2c1/C=N/NC(=S)N1CCN(c2ccccn2)CC1 [4d] | – | – | – | 10.1 ± 2.7 | – | – | – | –
4.38 ± 0.95 | – | 8.88 ± 2.53 | 7.45 ± 0.66 | 4.46 ± 0.78 | 2.23 ± 1.2 | Oc1ccc2cccnc2c1/C=N/NC(=S)N1CCN(c2ccccc2)CC1 [4b] | – | – | – | 10.1 ± 1.2 | – | – | – | –
16.4 ± 4.5 | – | 10.6 ± 1.2 | 9.7 ± 2.5 | 5.42 ± 0.64 | 2.6 ± 0.33 | Oc1ccccc1/C=N/NC(=S)N1CCN(c2ccccn2)CC1 [6d] | – | – | – | 18.4 ± 1.9 | decreased ascorbate oxidation relative to the control | – | – | –
19.2 ± 2.5 | – | 10.7 ± 1 | 10.9 ± 0.7 | > 6.25 | 9.83 ± 2.05 | Oc1ccccc1/C=N/NC(=S)N1CCN(c2cnccn2)CC1 [6e] | – | – | – | > 25 | – | – | – | –
